These results are taken from patent publication US9040691B2, “Hydroxymethylaryl-substituted pyrrolotriazines as ALK1 inhibitors” (BAYER INTELLECTUAL PROPERTY GMBH, priority 2011, dated 2015).

Experiment [1] concerns hSmad7 mRNA in BMP9-stimulated HUVEC. The experiment in a line: Smad7 target gene induction: HUVEC cell assay and TaqMan expression analysis. The format is cell-based, human. Particulars: Homo sapiens, 3 h, 1 ng/ml BMP9 for 3 h, Smad7 mRNA by TaqMan. As to the method: B-2b. Smad7 Target Gene Induction: HUVEC Cell Assay and TaqMan Expression Analysis
The in vitro potency of ALK1 inhibitors was tested in a cell-based assay. Bone morphogenetic protein 9 (BMP9) induces Smad7 mRNA expression in human vascular endothelial cells (HUVEC) via activation of ALK1.
1.5×10^4 passage 2 HUVECs (Lonza, Basel, Switzerland) per well were seeded in a 96-well plate in EBM-2 medium containing EGM-2 additives and growth factors (Lonza, CC-3156 and CC-4176). After 4 h, the medium was changed to EBM-2 with 0.2% fetal calf serum (FCS) and the cells were starved for 20 h in a humidified incubator at 37° C., 5% CO2. Test compounds were added at 11 different concentrations between 0 and 10 000 nM one hour prior to stimulation of the cells for 3 h with recombinant human BMP9 protein at 1 ng/ml (dissolved in 4 mM hydrochloric acid, 0.1% BSA at 10 μg/ml; R&D Systems, Minneapolis, Minn., USA, 3209BP). Medium was removed, and the cells were lysed in 100 μl RLT buffer (Qiagen, Hilden, Germany). RNA was isolated using the Qiagen RNeasy 96 Kit (order-No. 74182) according to manufacturer's instructions and eluted from the columns with 65 μl RNAse-free water. Reverse transcription for quantitative RT-PCR was carried out with the Omniscript Kit (Qiagen, 205113) in RNAse-free 96-well round-bottom plates. Per well, 6.8 μl of a reaction master mix containing 2 μl 10×RT-buffer, 2 μl dNTPs (5 mM each), 1.6 μl random primer N6 (125 μM), 0.25 μl Rnase Out (40 U/μl) and 1 μl Omniscript Reverse Transcriptase were added. After addition of 13.2 μl of the RNA/water mixture, plate contents were mixed, incubated for 1 h at 37° C. and the total volume adjusted to 100 μl in each well by addition of 80 μl RNAse-free water.
The quantification of human Smad7 mRNA was carried out on a TaqMan using the Eurogentec qPCR Mastermix Plus (RT-QP2X-03-075+; Cologne, Germany) and employing human L32 as housekeeping reference mRNA. Per qPCR reaction, 2.8 μl primer mix, 10 μl master mix, 2.2 μl water and 5 μl cDNA were added. Thermal cycling parameters were 2 min at 50° C., followed by 10 min at 95° C., followed by 40 cycles of melting at 95° C. for 15 sec and annealing/extending at 60° C. for 1 min.
Smad7 mRNA levels induced by 1 ng/ml BMP9 without the addition of any inhibitor were set at 100% induction, and % inhibition was calculated for each test compound with this value. For each test compound, every value was determined in quadruplicate. The IC50 values were determined using Microsoft Excel. The fitting method used was a weighted, unconstrained ML-fit.

The test system of experiment [2] is hSmad7 mRNA in BMP9-stimulated HMVEC. Description: Smad7 target gene induction: HMVEC cell assay and TaqMan expression analysis. Type of experiment: cell-based. Particulars: Homo sapiens, hBMP9 stimulation, Smad7 mRNA by TaqMan. On the procedure:
B-2a. Smad7 Target Gene Induction: HMVEC Cell Assay and TaqMan Expression Analysis
Activation of ALK1 receptors by BMP9 induces the Smad1/5 signalling pathway and enhances expression of target genes Smad6, Smad7 and Id-1. Induction of Smad7-mRNA in BMP9-stimulated endothelial cells was determined to monitor the cellular potency of ALK1 kinase inhibitors.
Human microvascular endothelial cells (IIMVECadult, Cell Systems, St. Katharinen) were seeded in complete ENGS MV medium with all supplements (LifeLine Cell Technology) in 96 well plates with 10 000 cells per well. After 4 h incubation at 37° C. and 7.5% CO2 in a humidified incubator, medium was replaced with minimal medium (ENGS MV without supplements containing 0.02% FCS). After 16 h, test compounds or medium (controls) were added to the cultures, followed 30 min later by addition of hBMP9 (R&D Systems). Medium was removed 1 to 4 h later, plates were gently washed with phosphate-buffered saline, and cells were lysed with 150 μl per well of ice-cold RLT buffer (Qiagen).
Total cellular RNA was isolated with the Trizol® reagent protocol according to the manufacturer's specifications (Invitrogen, USA) and treated with DNAseI to remove genomic DNA contamination.
For relative quantitation of the mRNA distribution of hSmad7, total RNA from each sample was first reverse-transcribed using the ImProm-II Reverse Transcription System (Promega, USA) according to the manufacturer's protocol. The final volume was adjusted to 200 μl with water.
For relative quantitation of selected mRNA, the Applied Bioscience ABI 7900HT Sequence Detection System was used according to the manufacturer's specifications and protocols. PCR reactions were set up to quantitate hSmad7- and the housekeeping gene L32-mRNA. Forward and reverse primers and probes for hSmad7 and L32 were designed using the Applied Bioscience ABI Primer Expressim software and were synthesized by Eurogentec (Belgium). The hSmad7 forward primer sequence was: Primer 1 (SEQ ID NO 1). The hSmad7 reverse primer sequence was: Primer 2 (SEQ ID NO 2). Probe 1 (SEQ ID NO 3), labelled with FAM as the reporter dye and TAMRA as the quencher, was used as a probe for hSmad7. The L32 forward primer sequence was: Primer 3 (SEQ ID NO 4). The L32 reverse primer sequence was: Primer 4 (SEQ ID NO 5). Probe 2 (SEQ ID NO 6), labelled with FAM as the reporter dye and TAMRA as the quencher, was used as a probe for L32.
The following reagents were prepared in a total of 20 μl added per well: 1× qPCR-MasterMix (Eurogentec, Belgium) and hSmad7 forward and reverse primers each at 200 nM, 200 nM hSmad7 FAM/TAMRA-labelled probe 1 (SEQ ID NO 3), and 5 μl of template cDNA. Correspondingly, a second mix in a total of 20 μl was prepared using L32 FAM/TAMRA-labelled probe 2 (SEQ ID NO 6) and L32 forward and reverse primers added per well in parallel samples.
Thermal cycling parameters were 2 min at 50° C., followed by 10 min at 95° C., followed by 40 cycles of melting at 95° C. for 15 sec and annealing/extending at 60° C. for 1 min.
Calculation of Relative Expression:
The Ct (cycle threshold) values were calculated from the turning point of PCR product quantity curves by the ΔΔCt method (delta-delta Ct): ΔCt=CthSmad7−CtL32; relative expression=2^(15-ΔCt).
IC50 values of test compounds were calculated on basis of relative Smad7 expressions at different compound concentrations.

On to `CCCc1cc(-c2ccc(CO)cc2)c2c(N)ncnn12` [Example 1, [4-(4-Amino-7-propylpyrrolo[2,1-f][1,2,4]triazin-5-yl)phenyl]methanol], for which the half-inhibitory concentration (IC50) in experiment [1] was 94 nM; in experiment [2], 100 nM.
In the case of `CCCc1cc(-c2cc(F)c(CO)c(F)c2)c2c(N)ncnn12` [Example 2, [4-(4-Amino-7-propylpyrrolo[2,1-f][1,2,4]triazin-5-yl)-2,6-difluorophenyl]methanol], the IC50 in experiment [1] came out at 160 nM; in experiment [2] it was 125 nM.
Consider `Nc1ncnn2c(CCCO)cc(-c3ccc(CO)cc3)c12` [Example 3, 3-{4-Amino-5-[4-(hydroxymethyl)phenyl]pyrrolo[2,1-f][1,2,4]triazin-7-yl}propan-1-ol], for which the values for the IC50 in experiment [1] and in experiment [2] were 120 nM and 180 nM, respectively.
Consider `Nc1ncnn2c(C(O)C3CC3)cc(-c3cc(F)c(CO)c(F)c3)c12` (centres unmarked) [Example 5, {4-Amino-5-[3,5-difluoro-4-(hydroxymethyl)phenyl]pyrrolo[2,1-f][1,2,4]triazin-7-yl}(cyclopropyl)methanol], for which the results for the IC50 in experiment [1] and in experiment [2] were 290 nM and 150 nM, respectively.
`Nc1ncnn2c1c(-c1cc(F)c(CO)c(F)c1)cc2[C@H]1CC[C@H](O)CC1` [Example 7, trans-4-[4-Amino-5-[3,5-difluoro-4-(hydroxymethyl)phenyl]pyrrolo[2,1-f][1,2,4]triazin-7-yl]-cyclohexanol]: the figures for the IC50 in experiment [1] and in experiment [2] were 140 nM and 130 nM, respectively.
Take `Nc1ncnn2c([C@@H]3CCCNC3)cc(-c3cc(F)c(CO)c(F)c3)c12` [Example 11, (4-{4-Amino-7-[(3R)-piperidin-3-yl]pyrrolo[2,1-f][1,2,4]triazin-5-yl}-2,6-difluorophenyl)methanol]: the IC50 was determined as 180 nM in experiment [1] and 90 nM in experiment [2].
In the case of `Nc1nc(-c2cc(-c3ccc(CO)cc3)c3c(N)ncnn23)cs1` [Example 17, {4-[4-Amino-7-(2-amino-1,3-thiazol-4-yl)pyrrolo[2,1-f][1,2,4]triazin-5-yl]phenyl}methanol], the IC50 in experiment [1] was determined as 290 nM; in experiment [2] it was 120 nM.
As for `Nc1ncnn2c(CN3CCOCC3)cc(-c3cc(F)c(CO)c(F)c3)c12` [Example 20, {4-[4-Amino-7-(morpholin-4-ylmethyl)pyrrolo[2,1-f][1,2,4]triazin-5-yl]-2,6-difluorophenyl}-methanol], the IC50 stood at 5900 nM in experiment [1] and 4400 nM in experiment [2].
Taken in the same sequence, the figures for `Nc1ncnn2c(CN3CCOCC3)cc(-c3ccc(CO)c(F)c3)c12` [Example 21, {4-[4-Amino-7-(morpholin-4-ylmethyl)pyrrolo[2,1-f][1,2,4]triazin-5-yl]-2-fluorophenyl}methanol] were 790 nM and 6000 nM.
Taken in the same sequence, the figures for `Nc1ncnn2c(CN3CCOCC3)cc(-c3ccc(CO)c(Cl)c3)c12` [Example 22, {4-[4-Amino-7-(morpholin-4-ylmethyl)pyrrolo[2,1-f][1,2,4]triazin-5-yl]-2-chlorophenyl}methanol] were 3100 nM and 800 nM.
